Experimental data taken from patent US20230009608A1, “GRK2 INHIBITORS AND USES THEREOF” (Cygnal Therapeutics, Inc., priority 2020, published 2023).
Where two headings read alike, the source gives them in different places.

Key:
[1] = test system: PAXF1657 control empty vector cell line; assay: 7-day proliferation assay, PAXF1657 control empty vector cell line (Example 9); type: cell-based; conditions: 168 h; Cell Line: PAXF1657 empty vector (EV) cell line; 7-day; read-out: C: 7-day proliferation assay: IC50 GeoMean
Procedure, shortened: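 PAXF1657 pancreatic cancer cells (GRK2-overexpressing vs empty vector; CRISPR GRK2 knockout vs non-targeting control) were seeded at 500 cells/well in RPMI1640/10% FBS, then given a 10-point series, 30 μM-0.0002 μM in 0.3% DMSO. Medium and compound were refreshed after 3 days; CellTiter-Glo luminescence was read at day 7.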

[2] = target: T1, GRK2 (Homo sapiens, UniProt P25098); assay: ADPGlo GRK2 Inhibition Assay (Example 8); type: biochemical; conditions: read-out: A: Enzymatic GRK2: IC50 (nM) (Example 8)
T1 construct: purchased SignalChem A14-10G
T1 sequence (P25098 1-689): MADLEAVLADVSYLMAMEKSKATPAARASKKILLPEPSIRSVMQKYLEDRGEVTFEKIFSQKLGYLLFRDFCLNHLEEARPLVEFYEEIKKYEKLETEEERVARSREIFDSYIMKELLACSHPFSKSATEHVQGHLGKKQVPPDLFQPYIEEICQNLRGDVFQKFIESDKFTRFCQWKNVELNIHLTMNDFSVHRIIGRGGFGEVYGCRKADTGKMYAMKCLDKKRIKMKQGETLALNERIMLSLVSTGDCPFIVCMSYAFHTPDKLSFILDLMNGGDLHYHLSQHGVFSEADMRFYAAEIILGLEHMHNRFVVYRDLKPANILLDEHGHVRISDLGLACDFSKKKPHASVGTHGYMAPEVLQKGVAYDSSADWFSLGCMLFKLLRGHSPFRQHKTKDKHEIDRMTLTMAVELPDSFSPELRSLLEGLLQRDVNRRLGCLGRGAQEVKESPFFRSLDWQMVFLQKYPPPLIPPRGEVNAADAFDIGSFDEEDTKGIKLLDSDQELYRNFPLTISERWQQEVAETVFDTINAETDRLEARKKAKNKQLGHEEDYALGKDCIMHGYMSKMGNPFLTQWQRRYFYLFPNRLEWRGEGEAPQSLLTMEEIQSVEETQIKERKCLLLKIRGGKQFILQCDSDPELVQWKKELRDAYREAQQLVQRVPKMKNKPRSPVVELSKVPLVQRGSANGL
Procedure, shortened: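 GRK2 (15 nM 2× enzyme solution) was preincubated 15 min with compound, then reacted 180 min at room temperature with 2× mix of 20 μM ATP plus GRKtide in HEPES pH 7.5, MgCl2, Tween-20, DTT. ADP was detected by ADP-Glo luminescence. Percent inhibition was normalised to enzyme and no-enzyme controls, with dose-response curves from threefold dilutions starting at 100 μM.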

[3] = Enzyme Assay A, ADPGlo (Example 8)

| IC50 ([2]; ADPGlo GRK2 enzyme assay) [nM] | IC50 [2, 3] [nM] | SMILES | IC50 [1] [µM] |
| --- | --- | --- | --- |
| 61 | – | Cc1nccnc1C(C)NC(=O)c1cccc(NCc2nnc(-c3ccncn3)n2C)c1 (centres unmarked) | > 12.5 |
| 63.7 | – | Cn1c(CNc2cccc(C(=O)NCc3ccc(F)c(F)c3)c2)nnc1-c1ccncn1 | 9.33 |
| – | 32.5 | Cn1c(CNc2cccc(C(=O)N[C@H]3COCc4ccccc43)c2)nnc1-c1ccncc1F | 0.0615 |
| – | 94 | COc1ccccc1[C@H](C)NC(=O)c1cccc(NCc2nnc(-c3ccncn3)n2C)c1 | > 10 |
| 7.43 | – | CC1Oc2ccccc2C1NC(=O)c1cccc(NCc2nnc(-c3ccncn3)n2C)c1 (centres unmarked) | 1.79 |
| – | 15 | Cc1cccc2c1OCC[C@@H]2NC(=O)c1cccc(NCc2nnc(-c3ccncn3)n2C)c1 | > 10 |
| 2.41 | – | COc1cccc([C@H](C)NC(=O)c2cccc(NCc3nnc(-c4ccncn4)n3CCO)c2)c1 | 0.0307 |
| – | 34 | O=C(NCc1cncnc1)c1cccc(NCc2nnc(-c3ccncc3)[nH]2)c1 | > 10 |
| 18.3 | – | CNc1ncccc1CNC(=O)c1cccc(NCc2nnc(-c3ccncn3)n2C)c1 | 1.63 |
| 65 | – | Cn1c(CNc2cccc(C(=O)NC3CC(O)c4ccccc43)c2)nnc1-c1ccncn1 (centres unmarked) | > 30 |
| – | 24 | Cc1noc(C)c1CNC(=O)c1cccc(NCc2nnc(-c3ccncc3)[nH]2)c1 | > 10 |
| 67.5 | – | COc1ccc(C)nc1CNC(=O)c1cccc(NCc2nnc(-c3ccncn3)n2C)c1 | > 12.4 |
| – | 20 | CC(C)n1nccc1CNC(=O)c1cccc(NCc2nnc(-c3ccncc3)[nH]2)c1 | > 10 |
| 71.1 | – | Cn1c(CNc2cc(C(=O)N[C@H]3COCc4ccccc43)ccn2)nnc1-c1ccncn1 | 11 |
| 83.1 | – | Cn1c(CNc2cccc(C(=O)NC(CO)c3ccc(F)cc3F)c2)nnc1-c1ccncn1 (centres unmarked) | 3.07 |
| 30.1 | – | COc1ccc(CNC(=O)c2cccc(NCc3nnc(-c4ccncn4)n3C)c2)cc1F | 6.65 |
| – | 22.4 | O=C(N[C@@H]1COc2cc(F)ccc21)c1cccc(NCc2nnc(-c3ccncn3)n2CCO)c1 | 0.0254 |
| – | 54 | COC[C@H](NC(=O)c1cccc(NCc2nnc(-c3ccncn3)n2C)c1)c1ccccn1 | > 10 |
| – | 23 | Cn1c(CNc2cccc(C(=O)NCc3ccon3)c2)nnc1-c1ccncn1 | > 30 |
| – | 111 | Cn1c(CNc2cccc(C(=O)N[C@H]3COc4cc(F)ccc43)c2)nnc1-c1ccncc1F | > 30 |
| – | 29 | COc1c(C)cccc1CNC(=O)c1cccc(NCc2nnc(-c3ccncn3)n2C)c1 | 2.06 |
| – | 33 | Cn1c(CNc2cccc(C(=O)NCc3ccncc3C(F)(F)F)c2)nnc1-c1ccncn1 | > 10 |

| IC50 ([2]; ADPGlo GRK2 enzyme assay) [nM] | IC50 [2, 3] [nM] | SMILES | IC50 [1] [µM] |
| --- | --- | --- | --- |
| – | 14 | Cc1cccnc1CNC(=O)c1cccc(NCc2nnc(-c3ccncn3)n2C)c1 [drawing 264] | 1.61 |
| – | 230 | CC(NC(=O)c1cccc(NCc2nnc(-c3ccncn3)n2C)c1)c1ncnn1C (centres unmarked) | > 10 |
| – | 28 | Cc1nc(C)c(CNC(=O)c2cccc(NCc3nnc(-c4ccncc4)[nH]3)c2)nc1C | > 10 |
| – | 17 | O=C(NCc1ncccn1)c1cccc(NCc2nnc(-c3ccncc3)[nH]2)c1 | > 10 |
| 4.82 | – | Cc1ccc(C#N)cc1CNC(=O)c1cccc(NCc2nnc(-c3ccncc3)n2CCO)c1 | > 4.6 |
| – | 29 | CC(NC(=O)c1cccc(NCc2nnc(-c3ccncn3)n2C)c1)c1ccccn1 (centres unmarked) | 0.522 |
| – | 27 | Cn1c(CNc2cccc(C(=O)NCc3cocn3)c2)nnc1-c1ccncn1 | > 30 |
| – | 26.1 | COc1cccc2c1OCC[C@H]2NC(=O)c1cccc(NCc2nnc(-c3ccncn3)n2C)c1 | 7.74 |
| – | 19 | Cc1nn(C)cc1CNC(=O)c1cccc(NCc2nnc(-c3ccncn3)n2C)c1 | 6.22 |
| – | 37 | Cn1c(CNc2cccc(C(=O)NCc3cnccn3)c2)nnc1-c1ccncn1 | > 30 |
| – | 14 | O=C(NCc1nccn1C(F)F)c1cccc(NCc2nnc(-c3ccncc3)[nH]2)c1 | 2.88 |
| – | 85.3 | CNS(=O)(=O)c1cccc(F)c1CNC(=O)c1cccc(NCc2nnc3n2CCOc2cnccc2-3)c1 | 2.84 |
| – | 15 | Cn1c(CNc2cccc(C(=O)NCc3cccc4c3OCCO4)c2)nnc1-c1ccncn1 | 2.07 |
| 3.22 | – | Cc1ccc(C#N)cc1CNC(=O)c1cccc(NCc2nnc(-c3ccncn3)n2CCO)c1 | > 30 |
| 28.3 | – | C[C@H](NC(=O)c1cccc(NCc2nnc(-c3ccncc3)n2CCO)c1)c1ncccc1Cl | 0.0809 |
| – | 10 | Cc1cnc(CNC(=O)c2cccc(NCc3nnc(-c4ccncn4)n3C)c2)c(C)c1 | > 10 |
| – | 59 | Cn1c(CNc2cccc(C(=O)NCc3ncnn3-c3ccccc3)c2)nnc1-c1ccncn1 | > 10 |
| – | 46 | COC[C@H](NC(=O)c1cccc(NCc2nnc(-c3ccncn3)n2C)c1)c1cccnc1 | 6.11 |
| – | 22 | Cn1ncc(Br)c1CNC(=O)c1cccc(NCc2nnc(-c3ccncn3)n2C)c1 | > 10 |
| 82.9 | – | Cn1c(CNc2cccc(C(=O)NCc3cnn(CCF)c3)c2)nnc1-c1ccncn1 | > 5.6 |
| – | 15.2 | CNS(=O)(=O)c1cccc(F)c1CNC(=O)c1cccc(NCc2nnc(-c3ccncc3)n2C)c1 | 1.24 |
| 58.8 | – | Cc1nccn1-c1ncccc1CNC(=O)c1cccc(NCc2nnc(-c3ccncn3)n2C)c1 | > 25.8 |

| IC50 ([2]; ADPGlo GRK2 enzyme assay) [nM] | IC50 [2, 3] [nM] | SMILES | IC50 [1] [µM] |
| --- | --- | --- | --- |
| 39.1 | – | Cn1c(CNc2cccc(C(=O)NCc3ccccc3C(F)(F)F)c2)nnc1-c1ccncc1F | > 2.32 |
| – | 17 | CC(NC(=O)c1cccc(NCc2nnc(-c3ccncn3)n2C)c1)c1cnn(C)c1 (centres unmarked) | 0.19 |
| – | 26 | Cc1nn(C)c(C)c1CNC(=O)c1cccc(NCc2nnc(-c3ccncn3)n2C)c1 | > 10 |
| – | 150 | C[C@H](NC(=O)c1cccc(NCc2nnc(-c3ccncn3)n2C)c1)C1NCCS1 (some centres unmarked) | 0.172 |
| 20 | – | COc1ccc(F)c(CNC(=O)c2cccc(NCc3nnc(-c4ccncn4)n3C)c2)c1 | 0.917 |
| – | 17 | Cn1cc(-c2cc(CNC(=O)c3cccc(NCc4nnc(-c5ccncn5)n4C)c3)ccn2)cn1 | > 30 |
| – | 12 | O=C(NC1CCCc2nccnc21)c1cccc(NCc2nnc(-c3ccncc3)[nH]2)c1 (centres unmarked) | 0.736 |
| 52 | – | Cn1c(CNc2cccc(C(=O)NCc3cc(S(C)(=O)=O)ccc3F)c2)nnc1-c1ccncn1 | > 16 |
| 17.5 | – | COc1cccc([C@H](C)NC(=O)c2cccc(NCc3nnc(-c4ccncc4)[nH]3)c2)c1 | > 30 |
| 46.4 | – | C#Cc1ccccc1CNC(=O)c1cccc(NCc2nnc(-c3ccncn3)n2C)c1 | 2.32 |
| 18 | – | Cn1c(CNc2cccc(C(=O)N[C@H](CCO)c3ccccc3)c2)nnc1-c1ccncc1F | > 30 |
| 7.15 | – | COc1ncc(Br)cc1CNC(=O)c1cccc(NCc2nnc(-c3ccncc3)n2CCO)c1 | 15.1 |
| 5.86 | – | Cc1cccc2ncc(CNC(=O)c3cccc(NCc4nnc(-c5ccncc5)n4CCO)c3)n12 | > 30 |
| 73.6 | – | CCOc1cccc(CNC(=O)c2cccc(NCc3nnc(-c4ccncn4)n3C)c2)c1 | > 30 |
| 54.7 | – | Cn1c(CNc2cccc(C(=O)NCC3COc4ccccc43)c2)nnc1-c1ccncn1 (centres unmarked) | > 5.21 |
| – | 67 | Cc1nc(C(C)NC(=O)c2cccc(NCc3nnc(-c4ccncn4)n3C)c2)no1 (centres unmarked) | > 30 |
| 14.3 | – | Cc1nncc(CNC(=O)c2cccc(NCc3nnc(-c4ccncn4)n3C)c2)c1C | 1.46 |
| 42 | – | CN(CCO)S(=O)(=O)c1ccccc1CNC(=O)c1cccc(NCc2nnc(-c3ccncn3)n2C)c1 | > 11.8 |
| 4.12 | – | COc1ncc(Br)cc1CNC(=O)c1cccc(NCc2nnc(-c3ccncn3)n2CCO)c1 | > 30 |
| – | 100 | Cn1c(CNc2cccc(C(=O)NC3(c4ccncn4)CC3)c2)nnc1-c1ccncn1 | 0.726 |
